# Experimental data taken from patent US20220274979A1 (Bayer Pharma Aktiengesellschaft, priority 2018, published 2022).
# pIC50: −log10 of the molar value.
# Tests used:
# [1] = molecular target: T1, hSOS1 (hSOS1-mediated nucleotide exchange of hK-RasG12C) (Homo sapiens, UniProt Q07889); experiment: Biochemical Assay 2: hK-RasG12C activation assay by hSOS1 at high GTP concentration (HTRF nucleotide exchange); settings: high GTP (50 μM GTP)
# T1 construct: hSOS1 (amino acid 564-1049); made in house; host or cells: E. coli BL21 (DE3)
# T1 sequence (Q07889 with tags, fused parts or gaps): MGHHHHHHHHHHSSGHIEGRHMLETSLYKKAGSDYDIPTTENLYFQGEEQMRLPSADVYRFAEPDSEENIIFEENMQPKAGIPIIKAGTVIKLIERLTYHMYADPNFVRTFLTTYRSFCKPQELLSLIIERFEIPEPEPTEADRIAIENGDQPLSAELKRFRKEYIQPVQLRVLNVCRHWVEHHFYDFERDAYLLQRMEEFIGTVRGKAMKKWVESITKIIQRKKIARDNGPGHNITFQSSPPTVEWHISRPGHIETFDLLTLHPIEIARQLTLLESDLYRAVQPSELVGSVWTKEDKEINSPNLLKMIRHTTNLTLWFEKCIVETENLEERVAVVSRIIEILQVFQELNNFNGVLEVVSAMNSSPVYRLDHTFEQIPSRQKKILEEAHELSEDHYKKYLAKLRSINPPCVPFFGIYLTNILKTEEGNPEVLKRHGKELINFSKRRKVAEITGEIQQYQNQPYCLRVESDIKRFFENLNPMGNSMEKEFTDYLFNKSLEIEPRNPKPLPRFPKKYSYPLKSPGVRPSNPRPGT
# [2] = molecular target: T2, hSOS1 (hSOS1-mediated loading of hK-RasG12C-GDP) (Homo sapiens, UniProt Q07889); experiment: Biochemical Assay 3: hK-RasG12C activation assay by hSOS1 (loading with fluorescent GTP analog, HTRF); settings: no GTP
# T2 construct: hSOS1 (amino acid 564-1049); made in house; host or cells: E. coli BL21 (DE3)
# T2 sequence (Q07889 with tags, fused parts or gaps): T1 sequence (Q07889 with tags, fused parts or gaps)
Compound,pIC50 [1],pIC50 [2]
"CC(=O)NCCNc1cc2c(NC(C)c3ccc(-c4ccccc4CN(C)C)s3)nc(C)nc2cn1 (stereo not drawn) [Example 51, N-{2-[(4-{[1-(5-{2-[(dimethylamino)methyl]phenyl}thiophen-2-yl)ethyl]amino}-2-methylpyrido[3,4-d]pyrimidin-6-yl)amino]ethyl}acetamide]",7.11,7.05
"Cc1nc(NC(C)c2ccc(-c3ccccc3CN(C)C)s2)c2cc(Oc3cccc(O)c3)ncc2n1 (stereo not drawn) [Example 52, 3-[(4-{[1-(5-{2-[(dimethylamino)methyl]phenyl}thiophen-2-yl)ethyl]amino}-2-methylpyrido[3,4-d]pyrimidin-6-yl)oxy]phenol]",6.07,6.27
"Cc1nc(NC(C)c2ccc(-c3ccccc3CN(C)C)s2)c2cc(NC3CCOCC3)ncc2n1 (stereo not drawn) [Example 53, N4-[1-(5-{2-[(dimethylamino)methyl]phenyl}-2-thienyl)ethyl]-2-methyl-N6-(tetrahydro-2H-pyran-4-yl)pyrido[3,4-d]pyrimidine-4,6-diamine]",6.65,6.62
"Cc1nc(NC(C)c2ccc(-c3ccccc3CN(C)C)s2)c2cc(NCCn3cccn3)ncc2n1 (stereo not drawn) [Example 54, N4-[1-(5-{2-[(dimethylamino)methyl]phenyl}-2-thienyl)ethyl]-2-methyl-N6-[2-(1H-pyrazol-1-yl)ethyl]pyrido[3,4-d]pyrimidine-4,6-diamine]",6.79,6.72
"Cc1nc(NC(C)c2ccc(-c3ccccc3CN(C)C)s2)c2cc(NCCn3ccnc3)ncc2n1 (stereo not drawn) [Example 56, N4-[1-(5-{2-[(dimethylamino)methyl]phenyl}-2-thienyl)ethyl]-N6-[2-(1H-imidazol-1-yl)ethyl]-2-methylpyrido[3,4-d]pyrimidine-4,6-diamine]",7.03,7.05
"COc1cc2c(N[C@H](C)c3cccc(Br)c3)nc(C)nc2cn1 [Example 57, N-[(1R)-1-(3-bromophenyl)ethyl]-6-methoxy-2-methylpyrido[3,4-d]pyrimidin-4-amine]",5.91,5.75
"Cc1nc(NC(C)c2ccc(-c3ccccc3CN(C)C)s2)c2cc(Oc3cccc(C4=NCCN4C)c3)ncc2n1 (stereo not drawn) [Example 58, N-[1-(5-{2-[(dimethylamino)methyl]phenyl}thiophen-2-yl)ethyl]-2-methyl-6-[3-(1-methyl-4,5-dihydro-1H-imidazol-2-yl)phenoxy]pyrido[3,4-d]pyrimidin-4-amine]",6.85,6.81
"CSc1cc2c(NC(C)c3ccc(-c4ccccc4CN(C)C)s3)nc(C)nc2cn1 (stereo not drawn) [Example 59, N-[1-(5-{2-[(dimethylamino)methyl]phenyl}thiophen-2-yl)ethyl]-2-methyl-6-(methylsulfanyl)pyrido[3,4-d]pyrimidin-4-amine]",7.17,7.17
"CC(=O)NCCOc1cc2c(N[C@H](C)c3cccc(Br)c3)nc(C)nc2cn1 [Example 62, N-{2-[(4-{[(1R)-1-(3-bromophenyl)ethyl]amino}-2-methylpyrido[3,4-d]pyrimidin-6-yl)oxy]ethyl}acetamide]",6.35,6.13
"CCOc1cc2c(NC(C)c3ccc(-c4ccccc4CN(C)C)s3)nc(C)nc2cn1 (stereo not drawn) [Example 63, N-[1-(5-{2-[(dimethylamino)methyl]phenyl}thiophen-2-yl)ethyl]-6-ethoxy-2-methylpyrido[3,4-d]pyrimidin-4-amine]",7.55,7.21
"COc1cc2c(NC(C)c3ccc(-c4ccccc4CN(C)C)s3)nc(C)nc2cn1 (stereo not drawn) [Example 64, N-[1-(5-{2-[(dimethylamino)methyl]phenyl}thiophen-2-yl)ethyl]-6-methoxy-2-methylpyrido[3,4-d]pyrimidin-4-amine]",7.20,7.10
"Cc1nc(NC(C)c2ccc(-c3ccccc3CN(C)C)s2)c2cc(OC3CCS(=O)(=O)CC3)ncc2n1 (stereo not drawn) [Example 67, N-[1-(5-{2-[(dimethylamino)methyl]phenyl}thiophen-2-yl)ethyl]-6-[(1,1-dioxidotetrahydro-2H-thiopyran-4-yl)oxy]-2-methylpyrido[3,4-d]pyrimidin-4-amine]",7.58,7.20
"Cc1nc(NC(C)c2ccc(-c3ccccc3CO)s2)c2cc(F)ncc2n1 (stereo not drawn) [Example 68, [2-(5-{1-[(6-fluoro-2-methylpyrido[3,4-d]pyrimidin-4-yl)amino]ethyl}thiophen-2-yl)phenyl]methanol]",< 4.70,< 4.70
"Cc1nc(N[C@H](C)c2cccc(Br)c2)c2cc(OCCCN(C)C)ncc2n1 [Example 70, N-[(1R)-1-(3-bromophenyl)ethyl]-6-[3-(dimethylamino)propoxy]-2-methylpyrido[3,4-d]pyrimidin-4-amine]",6.02,5.87
"Cc1nc(NC(C)c2ccc(-c3ccccc3CN(C)C)s2)c2cc(N3CCC3)ncc2n1 (stereo not drawn) [Example 71, 6-(azetidin-1-yl)-N-[1-(5-{2-[(dimethylamino)methyl]phenyl}thiophen-2-yl)ethyl]-2-methylpyrido[3,4-d]pyrimidin-4-amine]",7.26,7.08
"Cc1nc(NC(C)c2ccc(-c3ccccc3CN(C)C)s2)c2cc(OCCCN(C)C)ncc2n1 (stereo not drawn) [Example 72, N-[1-(5-{2-[(dimethylamino)methyl]phenyl}thiophen-2-yl)ethyl]-6-[3-(dimethylamino)propoxy]-2-methylpyrido[3,4-d]pyrimidin-4-amine]",7.38,7.31
"Cc1nc(NC(C)c2ccc(-c3ccccc3CN(C)C)s2)c2cc(OCC3CC3)ncc2n1 (stereo not drawn) [Example 73, 6-(cyclopropylmethoxy)-N-[1-(5-{2-[(dimethylamino)methyl]phenyl}thiophen-2-yl)ethyl]-2-methylpyrido[3,4-d]pyrimidin-4-amine]",6.89,6.86
"Cc1nc(NC(C)c2ccc(-c3ccccc3CN(C)C)s2)c2cc(OCCO)ncc2n1 (stereo not drawn) [Example 74, 2-[(4-{[1-(5-{2-[(dimethylamino)methyl]phenyl}thiophen-2-yl)ethyl]amino}-2-methylpyrido[3,4-d]pyrimidin-6-yl)oxy]ethanol]",7.03,6.97
"Cc1nc(N[C@H](C)c2cccc(Br)c2)c2cc(OCC3CC3)ncc2n1 [Example 75, N-[(1R)-1-(3-bromophenyl)ethyl]-6-(cyclopropylmethoxy)-2-methylpyrido[3,4-d]pyrimidin-4-amine]",5.50,4.82
"Cc1nc(NC(C)c2ccc(-c3ccccc3CN(C)C)s2)c2cc(OCCCO)ncc2n1 (stereo not drawn) [Example 76, 3-[(4-{[1-(5-{2-[(dimethylamino)methyl]phenyl}thiophen-2-yl)ethyl]amino}-2-methylpyrido[3,4-d]pyrimidin-6-yl)oxy]propan-1-ol]",7.30,7.14
"Cc1nc(NC(C)c2ccc(-c3ccccc3CN(C)C)s2)c2cc(OC3CCS(=N)(=O)CC3)ncc2n1 (stereo not drawn) [Example 77, N-[1-(5-{2-[(dimethylamino)methyl]phenyl}-2-thienyl)ethyl]-6-[(1-imino-1-oxidohexahydro-1lambda4-thiopyran-4-yl)oxy]-2-methylpyrido[3,4-d]pyrimidin-4-amine]",7.23,7.07
"Cc1nc(N[C@H](C)c2cccc(Br)c2)c2cc(OCCN(C)C)ncc2n1 [Example 78, N-[(1R)-1-(3-bromophenyl)ethyl]-6-[2-(dimethylamino)ethoxy]-2-methylpyrido[3,4-d]pyrimidin-4-amine]",5.98,5.64
Cc1nc(N[C@H](C)c2cccc(Br)c2)c2cc(NCCS(C)(=O)=O)ncc2n1 [Example 83],5.87,5.96
"Cc1nc(N[C@H](C)c2cccc(Br)c2)c2cc(NCCn3ccnc3)ncc2n1 [Example 84, N4-[(1R)-1-(3-bromophenyl)ethyl]-N6-[2-(1H-imidazol-1-yl)ethyl]-2-methylpyrido[3,4-d]pyrimidine-4,6-diamine]",5.99,5.92
"Cc1nc(NC(C)c2ccc(-c3ccccc3CN(C)C)s2)c2cc(NCC3CCNC(=O)C3)ncc2n1 (stereo not drawn) [Example 86, 4-{[(4-{[1-(5-{2-[(dimethylamino)methyl]phenyl}thiophen-2-yl)ethyl]amino}-2-methylpyrido[3,4-d]pyrimidin-6-yl)amino]methyl}piperidin-2-one]",6.90,6.84
"Cc1nc(NC(C)c2ccc(-c3ccccc3CN(C)C)s2)c2cc(N3CC(NC(=O)CCCn4c(-c5ccccn5)nc(C)c4C)C3)ncc2n1 (stereo not drawn) [Example 87, N-[1-(4-{[1-(5-{2-[(dimethylamino)methyl]phenyl}thiophen-2-yl)ethyl]amino}-2-methylpyrido[3,4-d]pyrimidin-6-yl)azetidin-3-yl]-4-[4,5-dimethyl-2-(pyridin-2-yl)-1H-imidazol-1-yl]butanamide]",6.62,6.64
"Cc1nc(NC(C)c2ccc(-c3ccccc3CN(C)C)s2)c2cc(N3CC(NC(=O)c4ccccc4)C3)ncc2n1 (stereo not drawn) [Example 88, N-[1-(4-{[1-(5-{2-[(dimethylamino)methyl]phenyl}thiophen-2-yl)ethyl]amino}-2-methylpyrido[3,4-d]pyrimidin-6-yl)azetidin-3-yl]benzamide]",6.79,6.76
